Cl.NC1=N[C@H](Cc2cccs2)CS1
melting point: 125 to 127 °C

Reference: patent US6699895B2, “2-aminothiazoline derivatives and process for preparing the same” (Aventis Pharma S.A., priority 2000, dated 2004)
